The target of assay [1] is T1, Alkaline phosphatase, tissue-nonspecific isozyme (Homo sapiens, UniProt P05186).
T1 sequence (P05186 whole entry): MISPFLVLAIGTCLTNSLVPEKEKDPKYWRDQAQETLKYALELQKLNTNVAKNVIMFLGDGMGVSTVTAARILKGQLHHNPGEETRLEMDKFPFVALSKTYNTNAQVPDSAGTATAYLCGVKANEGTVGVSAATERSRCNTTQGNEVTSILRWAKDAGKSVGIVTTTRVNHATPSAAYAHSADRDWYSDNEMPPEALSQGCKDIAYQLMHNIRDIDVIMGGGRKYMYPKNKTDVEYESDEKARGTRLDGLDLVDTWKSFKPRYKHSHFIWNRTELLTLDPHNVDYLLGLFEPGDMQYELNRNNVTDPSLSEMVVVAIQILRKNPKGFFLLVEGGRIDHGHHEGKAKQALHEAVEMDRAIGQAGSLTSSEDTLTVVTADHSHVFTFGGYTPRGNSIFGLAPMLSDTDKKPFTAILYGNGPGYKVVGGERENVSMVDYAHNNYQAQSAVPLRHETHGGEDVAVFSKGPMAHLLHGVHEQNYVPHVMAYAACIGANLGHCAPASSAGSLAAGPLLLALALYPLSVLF

The next assay concerns the target Nonstructural protein 1 (Influenza A virus, UniProt Q194T2). Format: functional, Influenza A virus (A/California/07/2009(H1N1)).
For assay [2], the target named is E3 ubiquitin-protein ligase Mdm2 (Homo sapiens, UniProt Q00987). Kind of assay: MDM2-luc reporter signal enhancers, multi-concentration potency testing, MDM2 ubiquitin-protein ligase inhibitor program, whole-cell format, luminescence detection, 384-well microplate (AID 1394).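 Further: MDM2 E3 inhibitors raise luminescence so EC50 is for signal enhancement.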 Format: functional.
A further assay concerns the target Ephrin type-A receptor 4 (Mus musculus, UniProt Q03137). Kind of assay: EphA4 ligand-binding antagonists – biochemical, colorimetric, mouse EphA4, primary screen (AID 689). Format: functional.
Assay [3] can be described thus: off-target signal loss in HeLa-CEM21 co-culture – HeLa F-luc CTL cells, cherry-picked, counter-screen for HIV-1 Env fusion inhibitor project, dose response (AID 652040).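 Further: potency for signal decrease marking cytotoxic or nonspecific inhibition.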 Format: functional, cell-based. (Counterscreens check selectivity or assay interference.)
The target of another assay is T2, Aminopeptidase N (Plasmodium falciparum FcB1/Columbia, UniProt O96935).
T2 sequence (O96935 whole entry): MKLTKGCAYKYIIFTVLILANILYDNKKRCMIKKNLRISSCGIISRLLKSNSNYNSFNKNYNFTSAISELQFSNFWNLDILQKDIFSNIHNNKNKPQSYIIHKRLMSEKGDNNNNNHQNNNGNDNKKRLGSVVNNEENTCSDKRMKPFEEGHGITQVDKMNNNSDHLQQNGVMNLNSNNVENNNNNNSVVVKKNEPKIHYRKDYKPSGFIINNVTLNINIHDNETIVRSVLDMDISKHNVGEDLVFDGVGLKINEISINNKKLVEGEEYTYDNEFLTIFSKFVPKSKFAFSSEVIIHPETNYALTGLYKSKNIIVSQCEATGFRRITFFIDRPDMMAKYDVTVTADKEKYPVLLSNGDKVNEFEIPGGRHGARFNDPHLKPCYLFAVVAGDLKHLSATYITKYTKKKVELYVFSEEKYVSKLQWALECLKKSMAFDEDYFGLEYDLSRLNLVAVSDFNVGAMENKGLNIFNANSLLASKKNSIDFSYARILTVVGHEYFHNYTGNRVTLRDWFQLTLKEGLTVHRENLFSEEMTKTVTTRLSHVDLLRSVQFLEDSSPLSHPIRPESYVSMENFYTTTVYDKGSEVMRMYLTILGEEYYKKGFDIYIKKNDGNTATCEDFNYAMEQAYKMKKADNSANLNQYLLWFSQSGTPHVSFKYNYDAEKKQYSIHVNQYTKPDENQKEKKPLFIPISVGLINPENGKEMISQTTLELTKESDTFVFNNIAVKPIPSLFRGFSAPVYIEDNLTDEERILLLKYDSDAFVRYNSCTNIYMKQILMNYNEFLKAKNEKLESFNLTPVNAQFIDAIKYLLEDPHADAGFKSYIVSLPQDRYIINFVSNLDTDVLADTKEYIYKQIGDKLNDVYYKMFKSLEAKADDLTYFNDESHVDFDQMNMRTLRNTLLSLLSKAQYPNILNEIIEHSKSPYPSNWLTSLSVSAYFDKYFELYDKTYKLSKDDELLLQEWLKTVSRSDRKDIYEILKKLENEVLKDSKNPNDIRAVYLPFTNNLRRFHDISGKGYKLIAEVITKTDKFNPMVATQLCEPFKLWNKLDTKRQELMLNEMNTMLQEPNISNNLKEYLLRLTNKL
Kind of assay: malaria alanyl aminopeptidase activity blockers – biochemical, fluorogenic H-Leu-NHMec substrate, 1536-well (AID 1445). Also on record: species or system Plasmodium falciparum 3D7, 3D7.

A short description of assay [4]: CCR5-tropic HIV-1 fusion blockers – cell-based, CCR5-tropic Env, dose response (AID 2279). Format: functional.
The target of assay [5] is T3, High affinity choline transporter 1 (Homo sapiens, UniProt Q9GZV3).
T3 sequence (Q9GZV3 whole entry): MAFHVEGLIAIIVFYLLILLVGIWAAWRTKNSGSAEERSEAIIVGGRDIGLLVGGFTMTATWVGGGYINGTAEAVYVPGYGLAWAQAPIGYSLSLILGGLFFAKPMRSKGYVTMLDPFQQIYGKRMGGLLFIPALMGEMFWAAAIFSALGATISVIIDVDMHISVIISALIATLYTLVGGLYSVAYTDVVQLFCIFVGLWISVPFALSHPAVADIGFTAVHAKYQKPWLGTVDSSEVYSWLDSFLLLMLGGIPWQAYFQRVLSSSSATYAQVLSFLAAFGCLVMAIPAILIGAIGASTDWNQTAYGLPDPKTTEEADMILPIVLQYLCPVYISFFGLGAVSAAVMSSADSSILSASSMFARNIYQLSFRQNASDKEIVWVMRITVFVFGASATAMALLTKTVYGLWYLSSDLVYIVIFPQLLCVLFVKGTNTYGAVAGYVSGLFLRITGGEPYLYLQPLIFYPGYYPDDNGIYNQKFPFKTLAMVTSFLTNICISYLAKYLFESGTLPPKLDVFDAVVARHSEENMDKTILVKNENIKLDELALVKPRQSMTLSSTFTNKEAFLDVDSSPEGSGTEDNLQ
As to the kind of experiment: human choline transporter blockers, potency – cell-based, 5-point CRC, membrane potential dye, dose response (AID 504840). Format: functional.

Assay [6] is described as follows: blockers of HIV-1 envelope-mediated cell-cell fusion – cherry-pick, dose response (AID 652057). Format: functional, cell-based.
Assay [7] is described as follows: HIV-1 AD8 envelope cell-cell fusion blockers – cherry-pick, dose response (AID 652062).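 Further: luciferase signal from cell-cell fusion driven by HIV-1 clade B AD8 Env; potency is for inhibitors of fusion seen as a drop in luminescence.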 Format: functional, cell-based.
For another assay, the target named is Cytochrome P450 2C9 (Homo sapiens, UniProt P11712).
For a further assay, the target named is Cytochrome P450 2C19 (Homo sapiens, UniProt P33261). As to the kind of experiment: qHTS Assay for Inhibitors and Substrates of Cytochrome P450 2C19. [Related pubchem assays: 410 ]. Format: ADME. As to conditions: read-out: Potency.
Another assay has as its target Cytochrome P450 3A4 (Homo sapiens, UniProt P08684). As to conditions: Potency.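 Further: confirmatory qHTS run detecting inhibitors and substrates of CYP3A4.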
Assay [8] can be described thus: Luminescence Cell-Based Dose Response to Identify Activators of 5'UTR Stem-Loop Driven Prion Protein mRNA Translation in H4-C Neuroglioblastoma Cells. [Related pubchem assays: 1829 (Project Summary), 1814 (Primary HTS)]. Format: functional.
A short description of assay [9]: Luminescence Cell-Based Dose Response HTS to Identify Activators of Luciferase Translation or Activity in H4 […] Cells. [Related pubchem assays: 1829 (Project Summary), 1814 (Primary HTS)]. Format: functional.
Assay [10] is described as follows: Luminescence Cell-Based Dose Response to Identify Activators of Luciferase Translation or Activity in H4-C Neuroglioblastoma Cells. [Related pubchem assays: 1829 (Project Summary), 1814 (Primary HTS)]. Format: functional.
Assay [11] is described as follows: Luminescence Cell-Based Dose Confirmation HTS to Identify Activators of 5'UTR Stem-Loop Driven Alpha-Synuclein mRNA Translation in H4 Neuroglioblastoma Cells. [Related pubchem assays: 1829 (Project Summary), 1814 (Primary HTS)]. Format: functional.
A short description of assay [12]: Luminescence Cell-Based Dose Confirmation to Identify Activators of 5'UTR Stem-Loop Driven Alpha-Synuclein mRNA Translation in H4 Neuroglioblastoma Cells. [Related pubchem assays: 1829 (Project Summary), 1814 (Primary HTS)]. Format: functional.
The next assay has as its system H4. Kind of assay: Luminescence Cell-Based Dose Response HTS to Identify Activators of 5'UTR Stem-Loop Driven Prion Protein mRNA Translation in H4 Neuroglioblastoma Cells. [Related pubchem assays: 1829 (Project Summary), 1814 (Primary HTS)]. Format: functional. As to conditions: Homo sapiens.
The nature of assay [13]: Luminescence Cell-Based Dose Retest to Confirm Inhibitors of Cancer Stem Cells. [Related pubchem assays (depositor defined):AID2717, AID2721]. Format: functional. As to conditions: Homo sapiens.
Assay [14] concerns the target T4, Mannose-6-phosphate isomerase (Homo sapiens, UniProt P34949).
T4 sequence (P34949 whole entry): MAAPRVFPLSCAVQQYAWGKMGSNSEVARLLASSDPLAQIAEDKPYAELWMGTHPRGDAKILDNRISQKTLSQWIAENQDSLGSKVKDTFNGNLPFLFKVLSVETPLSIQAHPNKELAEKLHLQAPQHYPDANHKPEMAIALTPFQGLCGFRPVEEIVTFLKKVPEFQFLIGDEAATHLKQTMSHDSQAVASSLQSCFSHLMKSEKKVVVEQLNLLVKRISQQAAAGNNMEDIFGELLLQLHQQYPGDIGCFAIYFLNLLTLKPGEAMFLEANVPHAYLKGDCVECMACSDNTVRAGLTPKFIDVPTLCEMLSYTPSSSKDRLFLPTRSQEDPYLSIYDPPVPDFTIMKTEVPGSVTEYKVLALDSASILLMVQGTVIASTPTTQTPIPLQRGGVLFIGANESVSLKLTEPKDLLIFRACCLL
As to the kind of experiment: MPI enzyme activity inhibition – biochemical, fluorescence intensity, coupled assay, primary screen (AID 1209).

In assay [15] the target is T5, Oxysterols receptor LXR-beta (Homo sapiens, UniProt P55055).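 Further: Cell-based luminescence dose-response assay of agonist activity at LXR, run as a confirmatory counterscreen to a daf-12 agonist screen; HEK293 cells with Gal4-LXR fusion and GAL4-driven luciferase reporter; agonist potency from rising luciferase signal of a Gal4-LXR reporter.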
T5 sequence (P55055 whole entry): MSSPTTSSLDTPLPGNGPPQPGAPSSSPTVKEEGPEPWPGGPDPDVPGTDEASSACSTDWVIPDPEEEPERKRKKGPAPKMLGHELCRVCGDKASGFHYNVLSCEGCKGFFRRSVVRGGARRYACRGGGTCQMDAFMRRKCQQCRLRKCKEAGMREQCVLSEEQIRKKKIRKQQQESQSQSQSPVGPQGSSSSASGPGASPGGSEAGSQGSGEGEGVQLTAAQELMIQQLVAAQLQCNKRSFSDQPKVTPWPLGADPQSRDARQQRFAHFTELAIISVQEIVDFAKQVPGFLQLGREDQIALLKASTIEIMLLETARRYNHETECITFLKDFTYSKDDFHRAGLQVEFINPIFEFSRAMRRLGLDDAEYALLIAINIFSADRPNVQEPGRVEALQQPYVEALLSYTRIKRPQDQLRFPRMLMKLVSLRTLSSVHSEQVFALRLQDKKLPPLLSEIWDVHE
Format: functional, cell-based.

In assay [16] the target is Heat shock cognate 71 kDa protein (Homo sapiens, UniProt P11142). Kind of assay: In Vitro Hsc70 Dose Response Fluorescence Polarization Assay. [Related pubchem assays: 1072 ]. In general terms: Fluorescence polarisation rises when a labelled molecule tumbles more slowly, as on binding a larger partner.
In assay [17] the target is Heat shock 70 kDa protein 1A (Homo sapiens, UniProt P0DMV8). As to the kind of experiment: inhibition of Hsp70 binding activity – biochemical, fluorescence polarization, SAR follow-up (AID 1072).

Each structure is given as a SMILES string. Activity calls are given as the source filed them.

Ephrin type-A receptor 4, sequence (Q03137 whole entry, the tested form may be a part): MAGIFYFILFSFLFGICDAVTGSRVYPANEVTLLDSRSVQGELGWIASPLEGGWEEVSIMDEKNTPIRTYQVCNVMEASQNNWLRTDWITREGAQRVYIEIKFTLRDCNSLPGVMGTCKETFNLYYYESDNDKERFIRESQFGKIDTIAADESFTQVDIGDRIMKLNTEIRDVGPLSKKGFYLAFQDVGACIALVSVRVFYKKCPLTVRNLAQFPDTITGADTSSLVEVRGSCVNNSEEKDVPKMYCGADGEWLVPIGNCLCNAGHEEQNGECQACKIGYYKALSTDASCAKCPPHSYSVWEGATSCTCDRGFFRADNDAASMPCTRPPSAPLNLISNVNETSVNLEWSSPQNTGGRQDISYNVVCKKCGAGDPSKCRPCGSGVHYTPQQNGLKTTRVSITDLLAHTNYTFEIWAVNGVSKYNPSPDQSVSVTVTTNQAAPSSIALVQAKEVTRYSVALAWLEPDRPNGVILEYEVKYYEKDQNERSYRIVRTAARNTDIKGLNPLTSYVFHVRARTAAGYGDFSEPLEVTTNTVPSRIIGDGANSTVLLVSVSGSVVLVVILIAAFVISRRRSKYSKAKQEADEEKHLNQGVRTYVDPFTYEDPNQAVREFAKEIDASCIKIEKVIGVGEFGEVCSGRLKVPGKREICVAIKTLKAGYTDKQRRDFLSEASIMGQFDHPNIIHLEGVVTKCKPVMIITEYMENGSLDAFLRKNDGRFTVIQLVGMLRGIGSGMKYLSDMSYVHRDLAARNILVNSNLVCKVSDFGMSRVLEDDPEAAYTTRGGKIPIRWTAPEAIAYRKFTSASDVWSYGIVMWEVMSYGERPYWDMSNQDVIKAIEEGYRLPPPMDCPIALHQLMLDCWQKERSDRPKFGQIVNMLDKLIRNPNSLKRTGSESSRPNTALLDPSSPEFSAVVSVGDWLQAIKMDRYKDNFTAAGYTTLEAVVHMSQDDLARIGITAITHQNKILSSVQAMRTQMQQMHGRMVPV
E3 ubiquitin-protein ligase Mdm2, sequence (Q00987 whole entry): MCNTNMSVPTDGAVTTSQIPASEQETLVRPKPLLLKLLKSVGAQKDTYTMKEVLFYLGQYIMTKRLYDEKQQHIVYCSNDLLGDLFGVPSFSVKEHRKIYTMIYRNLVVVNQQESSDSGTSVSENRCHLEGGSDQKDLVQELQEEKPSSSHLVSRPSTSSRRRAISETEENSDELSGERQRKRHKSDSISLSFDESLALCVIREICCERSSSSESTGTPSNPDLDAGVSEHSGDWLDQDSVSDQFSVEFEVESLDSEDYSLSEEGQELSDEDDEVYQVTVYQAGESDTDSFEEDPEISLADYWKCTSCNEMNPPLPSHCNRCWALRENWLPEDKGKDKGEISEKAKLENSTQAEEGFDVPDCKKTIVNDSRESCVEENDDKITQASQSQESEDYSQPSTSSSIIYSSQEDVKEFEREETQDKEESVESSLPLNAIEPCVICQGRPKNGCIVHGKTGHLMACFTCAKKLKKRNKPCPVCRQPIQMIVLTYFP
Heat shock cognate 71 kDa protein, sequence (P11142 whole entry): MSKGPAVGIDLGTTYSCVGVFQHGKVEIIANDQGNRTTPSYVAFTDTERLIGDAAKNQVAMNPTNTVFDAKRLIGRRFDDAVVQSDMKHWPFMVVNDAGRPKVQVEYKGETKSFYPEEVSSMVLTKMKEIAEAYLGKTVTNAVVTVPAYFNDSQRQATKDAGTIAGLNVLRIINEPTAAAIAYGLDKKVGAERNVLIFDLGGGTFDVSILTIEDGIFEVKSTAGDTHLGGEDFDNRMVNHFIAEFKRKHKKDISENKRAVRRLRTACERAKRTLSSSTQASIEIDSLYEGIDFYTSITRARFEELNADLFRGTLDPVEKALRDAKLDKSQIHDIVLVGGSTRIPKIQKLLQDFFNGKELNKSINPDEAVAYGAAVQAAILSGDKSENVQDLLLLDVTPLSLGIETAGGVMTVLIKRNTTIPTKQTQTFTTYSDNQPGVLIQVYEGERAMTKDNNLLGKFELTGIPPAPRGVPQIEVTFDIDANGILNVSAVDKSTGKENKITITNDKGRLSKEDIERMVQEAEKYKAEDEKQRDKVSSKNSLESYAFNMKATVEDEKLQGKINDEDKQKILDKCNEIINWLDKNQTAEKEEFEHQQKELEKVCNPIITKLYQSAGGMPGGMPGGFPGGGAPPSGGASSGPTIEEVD
Nonstructural protein 1, sequence (Q194T2 whole entry): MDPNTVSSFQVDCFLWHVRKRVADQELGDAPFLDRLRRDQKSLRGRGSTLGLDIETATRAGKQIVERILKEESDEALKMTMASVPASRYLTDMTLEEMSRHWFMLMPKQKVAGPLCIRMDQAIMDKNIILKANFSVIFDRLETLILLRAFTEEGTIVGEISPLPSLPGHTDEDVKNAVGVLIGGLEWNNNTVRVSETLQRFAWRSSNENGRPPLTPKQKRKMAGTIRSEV
Cytochrome P450 2C9, sequence (P11712 whole entry): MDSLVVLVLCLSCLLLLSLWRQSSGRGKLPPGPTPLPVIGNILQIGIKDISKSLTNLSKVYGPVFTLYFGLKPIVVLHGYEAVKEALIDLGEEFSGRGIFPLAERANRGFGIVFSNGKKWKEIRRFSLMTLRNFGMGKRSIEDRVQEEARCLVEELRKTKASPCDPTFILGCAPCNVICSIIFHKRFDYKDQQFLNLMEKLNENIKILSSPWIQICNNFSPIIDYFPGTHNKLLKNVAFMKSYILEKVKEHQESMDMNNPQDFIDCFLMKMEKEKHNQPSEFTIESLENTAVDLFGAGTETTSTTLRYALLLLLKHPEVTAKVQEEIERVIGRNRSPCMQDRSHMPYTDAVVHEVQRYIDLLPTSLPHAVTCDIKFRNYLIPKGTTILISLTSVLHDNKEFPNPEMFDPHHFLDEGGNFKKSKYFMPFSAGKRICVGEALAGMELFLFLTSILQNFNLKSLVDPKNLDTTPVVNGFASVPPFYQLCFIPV
Heat shock 70 kDa protein 1A, sequence (P0DMV8 whole entry): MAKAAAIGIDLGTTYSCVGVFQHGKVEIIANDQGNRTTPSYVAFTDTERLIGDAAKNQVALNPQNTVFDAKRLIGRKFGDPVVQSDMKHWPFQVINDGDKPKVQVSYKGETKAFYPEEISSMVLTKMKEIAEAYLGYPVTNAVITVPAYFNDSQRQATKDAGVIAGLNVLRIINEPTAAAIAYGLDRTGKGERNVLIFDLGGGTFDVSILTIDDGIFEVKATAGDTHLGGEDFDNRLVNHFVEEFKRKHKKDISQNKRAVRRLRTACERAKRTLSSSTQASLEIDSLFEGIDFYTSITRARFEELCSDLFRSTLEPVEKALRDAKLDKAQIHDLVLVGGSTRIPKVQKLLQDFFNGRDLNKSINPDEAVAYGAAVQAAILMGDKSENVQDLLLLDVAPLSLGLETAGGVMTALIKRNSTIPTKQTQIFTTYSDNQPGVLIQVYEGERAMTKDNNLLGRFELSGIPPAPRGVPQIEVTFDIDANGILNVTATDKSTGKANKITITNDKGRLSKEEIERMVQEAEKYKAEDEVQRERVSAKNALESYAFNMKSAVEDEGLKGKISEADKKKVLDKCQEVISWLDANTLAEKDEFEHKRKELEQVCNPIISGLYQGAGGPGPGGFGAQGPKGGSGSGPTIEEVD
Cytochrome P450 2C19, sequence (P33261 whole entry): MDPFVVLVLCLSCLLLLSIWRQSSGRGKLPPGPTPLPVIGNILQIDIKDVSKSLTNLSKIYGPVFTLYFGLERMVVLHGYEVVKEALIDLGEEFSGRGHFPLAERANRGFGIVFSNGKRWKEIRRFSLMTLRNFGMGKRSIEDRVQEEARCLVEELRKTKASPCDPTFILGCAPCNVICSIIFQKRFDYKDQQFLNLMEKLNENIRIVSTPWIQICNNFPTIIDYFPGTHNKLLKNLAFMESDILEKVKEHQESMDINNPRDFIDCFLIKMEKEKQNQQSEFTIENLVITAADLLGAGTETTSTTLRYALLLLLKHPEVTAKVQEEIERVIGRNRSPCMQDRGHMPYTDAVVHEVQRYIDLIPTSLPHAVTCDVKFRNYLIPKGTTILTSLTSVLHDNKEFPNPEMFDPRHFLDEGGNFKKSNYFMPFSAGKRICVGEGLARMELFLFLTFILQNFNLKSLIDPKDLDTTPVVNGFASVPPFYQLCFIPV
Cytochrome P450 3A4, sequence (P08684 whole entry): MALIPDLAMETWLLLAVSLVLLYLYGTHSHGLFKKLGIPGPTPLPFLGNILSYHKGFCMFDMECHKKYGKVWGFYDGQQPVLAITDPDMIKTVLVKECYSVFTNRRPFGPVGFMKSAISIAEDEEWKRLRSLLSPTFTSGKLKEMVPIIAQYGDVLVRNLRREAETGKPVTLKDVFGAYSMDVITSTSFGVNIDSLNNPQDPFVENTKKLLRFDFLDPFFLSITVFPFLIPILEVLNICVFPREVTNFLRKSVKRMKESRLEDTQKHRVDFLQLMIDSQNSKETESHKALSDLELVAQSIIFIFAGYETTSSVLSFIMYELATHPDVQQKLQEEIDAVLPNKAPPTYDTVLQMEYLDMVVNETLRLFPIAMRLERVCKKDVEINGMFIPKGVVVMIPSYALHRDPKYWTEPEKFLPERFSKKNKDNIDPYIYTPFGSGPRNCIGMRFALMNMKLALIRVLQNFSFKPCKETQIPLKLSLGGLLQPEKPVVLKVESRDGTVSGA

Turning to `Cc1c(C(=O)N(C)C)sc2[nH]c(-c3ccccn3)nc(=O)c12`, the EC50 – broadly, the concentration at which the effect is half-maximal – in assay [1] is listed as 63.6 µM (not active). Further, at Nonstructural protein 1, the IC50 (commonly the concentration at which inhibition is half-maximal) is 13.1 µM (active).

Consider `O=C(Nc1ccc(Cl)cc1)c1ccc(-n2cccn2)c([N+](=O)[O-])c1`, for which the EC50 in [2] was 8.84 µM (not active).

On to `O=C1/C(=C\c2ccc(-c3ccccc3Cl)o2)SC(=S)N1CC1CCCO1` (centres undefined), for which, at Ephrin type-A receptor 4, the IC50 was 0.4 µM (active).

As to `Cn1c(=O)[nH]c(=O)c2c1nc(Br)n2CCCc1ccccc1`, in assay [2], the EC50 was 46.5 µM (not active).

For `O=S(=O)(Nc1nc2ccccc2nc1Nc1cccc(S(=O)(=O)N2CCCCC2)c1)c1ccccc1`, the AC50 is 23.9 µM (active) in [3], 8.16 µM (active) in [6] and 12 µM (active) in [7]. For the same molecule, the IC50 is 91.9 µM (active) at Aminopeptidase N, 5.7 µM (active) in assay [4] and 12 µM (active) in assay [5].

Take `COc1ccc2sc3ccccc3c(=O)c2c1OC`: the AC50 on Cytochrome P450 2C9 is 28.2 µM (inconclusive). Besides, the IC50 at Ephrin type-A receptor 4 is > 100 µM (not active).

With `COC(=O)NC(c1cccs1)C(C(C)=O)C(=O)OC` (centres undefined), the AC50 on Cytochrome P450 2C19 and at Cytochrome P450 3A4 was 3.98 µM (inconclusive) in each case.

As to `CC1CCN(C(=O)CSc2nc3ccccc3s2)CC1`, the EC50 in assay [8] is 2.07 µM (active); in assay [9], < 0.1 µM (inconclusive); in assay [10], 0.482 µM (active); in assay [11] it was 0.185 µM (active); in [12], 1.69 µM (active); with H4, 20.3 µM (active).

Take `COc1ccc(C(=O)/C=C/c2ccc(OCc3ccccc3)cc2)cc1CSCC(=O)O`: the IC50 in assay [4] was 42.8 µM (active). Further, in [13], the AC50 is 5.79 µM (active).

Consider `Cc1cccc(NC(=O)C2CC(=O)n3cnnc3S2)c1` (centres undefined), for which, in assay [14], the IC50 was > 50 µM (not active).

For `O=C(Nc1ccccc1)Nc1cccc2nsnc12`, the EC50 in the assay “cells” is > 67.5 µM (inactive); in [8] it was 0.452 µM (active); in assay [9], < 0.1 µM (inconclusive); in assay [10] it was 0.739 µM (active); in assay [11] it was 0.19 µM (active); in [12], > 12 µM (not active). Further, the EC50 was > 67.5 µM (inactive) in assay [15] and 1.37 µM (active) in the assay with H4.

Consider `O=C1C=C2CC3(O)CCc4c(ccc(O)c4O)C3=C2C=C1O` (centres undefined), for which the figures for the IC50 in assay [16] and in assay [17] were > 100 µM (not active) and 34.2 µM (active), respectively.

These data come from ChEMBL document CHEMBL1201862, “PubChem BioAssay data set” (2004).
